Results taken from publication PMC4578888, “The Validation of Nematode-Specific Acetylcholine-Gated Chloride Channels as Potential Anthelmintic Drug Targets” (PLoS ONE, 2015).

Biological target: T1, AVR-15 (glutamate-gated chloride channel subunit) (Caenorhabditis elegans, UniProt O17548)
T1 construct: homomeric AVR-15, untagged and with a fluorescent protein tag in the intracellular loop, expressed in Xenopus laevis oocytes
T1 sequence (O17548 21-478): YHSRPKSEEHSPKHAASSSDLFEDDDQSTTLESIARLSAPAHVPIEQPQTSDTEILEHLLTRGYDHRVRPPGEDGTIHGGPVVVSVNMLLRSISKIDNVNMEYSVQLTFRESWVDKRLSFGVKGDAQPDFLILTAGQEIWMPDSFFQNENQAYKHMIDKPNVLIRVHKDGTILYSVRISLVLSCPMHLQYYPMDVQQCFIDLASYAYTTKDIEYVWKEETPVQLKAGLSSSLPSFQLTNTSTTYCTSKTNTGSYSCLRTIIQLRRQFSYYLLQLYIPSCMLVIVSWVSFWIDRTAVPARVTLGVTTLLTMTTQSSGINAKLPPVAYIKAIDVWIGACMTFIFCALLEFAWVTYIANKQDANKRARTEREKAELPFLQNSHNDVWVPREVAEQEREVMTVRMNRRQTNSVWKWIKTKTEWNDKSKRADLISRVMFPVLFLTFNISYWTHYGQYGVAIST
Assay: two-electrode voltage clamp in Xenopus oocytes, dose–response curve
Format: cell-based

## N[C@@H](CCC(=O)O)C(=O)O [glutamate]
  two-electrode voltage clamp in Xenopus oocytes, dose-response curve: Dose–response curve with the normalized maximal response on the y-axis plotted against the glutamate concentration
